The Kinase Knowledgebase extract (Sharma et al. 2016)

What was measured:
PIK3CD (Human) = PIK3CD (Human) (UniProt O00329); assay: Cell-Based Assay; conditions: raji
PIK3CA (human) = PIK3CA (human) (UniProt P42336); assay: Enzyme Assay
PIK3CG (human) = PIK3CG (human) (UniProt P48736); assay: Enzyme Assay
PIK3CB (Human) = PIK3CB (Human) (UniProt P42338); assay: Enzyme Assay
Sequence of PIK3CB (Human) (P42338 whole entry, looked up): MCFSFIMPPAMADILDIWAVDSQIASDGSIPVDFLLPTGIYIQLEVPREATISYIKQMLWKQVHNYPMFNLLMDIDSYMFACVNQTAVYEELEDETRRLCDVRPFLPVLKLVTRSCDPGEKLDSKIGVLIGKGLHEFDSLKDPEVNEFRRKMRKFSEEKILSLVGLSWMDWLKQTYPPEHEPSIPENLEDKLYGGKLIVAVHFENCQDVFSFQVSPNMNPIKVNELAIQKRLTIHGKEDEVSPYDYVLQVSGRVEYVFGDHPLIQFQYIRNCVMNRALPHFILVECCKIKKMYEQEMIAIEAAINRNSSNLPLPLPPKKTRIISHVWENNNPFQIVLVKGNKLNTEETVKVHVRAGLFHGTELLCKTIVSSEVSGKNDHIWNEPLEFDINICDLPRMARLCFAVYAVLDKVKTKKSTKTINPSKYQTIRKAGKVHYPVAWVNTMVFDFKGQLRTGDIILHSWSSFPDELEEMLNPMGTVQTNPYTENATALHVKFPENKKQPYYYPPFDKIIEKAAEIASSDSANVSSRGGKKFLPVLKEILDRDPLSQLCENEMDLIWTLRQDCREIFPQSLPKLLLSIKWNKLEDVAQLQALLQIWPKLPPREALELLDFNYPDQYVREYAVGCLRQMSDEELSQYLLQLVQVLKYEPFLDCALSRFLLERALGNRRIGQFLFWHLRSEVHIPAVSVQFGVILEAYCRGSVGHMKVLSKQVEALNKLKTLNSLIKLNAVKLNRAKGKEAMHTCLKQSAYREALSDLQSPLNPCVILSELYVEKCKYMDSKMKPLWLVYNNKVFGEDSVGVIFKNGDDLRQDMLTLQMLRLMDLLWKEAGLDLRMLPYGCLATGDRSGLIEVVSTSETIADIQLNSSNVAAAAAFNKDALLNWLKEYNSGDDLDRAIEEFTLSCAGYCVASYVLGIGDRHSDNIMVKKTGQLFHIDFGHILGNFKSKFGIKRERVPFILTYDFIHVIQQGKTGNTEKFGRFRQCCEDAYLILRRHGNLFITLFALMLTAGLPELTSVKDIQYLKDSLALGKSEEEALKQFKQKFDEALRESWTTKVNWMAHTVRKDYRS

Sequence of PIK3CA (human) (P42336 whole entry, looked up): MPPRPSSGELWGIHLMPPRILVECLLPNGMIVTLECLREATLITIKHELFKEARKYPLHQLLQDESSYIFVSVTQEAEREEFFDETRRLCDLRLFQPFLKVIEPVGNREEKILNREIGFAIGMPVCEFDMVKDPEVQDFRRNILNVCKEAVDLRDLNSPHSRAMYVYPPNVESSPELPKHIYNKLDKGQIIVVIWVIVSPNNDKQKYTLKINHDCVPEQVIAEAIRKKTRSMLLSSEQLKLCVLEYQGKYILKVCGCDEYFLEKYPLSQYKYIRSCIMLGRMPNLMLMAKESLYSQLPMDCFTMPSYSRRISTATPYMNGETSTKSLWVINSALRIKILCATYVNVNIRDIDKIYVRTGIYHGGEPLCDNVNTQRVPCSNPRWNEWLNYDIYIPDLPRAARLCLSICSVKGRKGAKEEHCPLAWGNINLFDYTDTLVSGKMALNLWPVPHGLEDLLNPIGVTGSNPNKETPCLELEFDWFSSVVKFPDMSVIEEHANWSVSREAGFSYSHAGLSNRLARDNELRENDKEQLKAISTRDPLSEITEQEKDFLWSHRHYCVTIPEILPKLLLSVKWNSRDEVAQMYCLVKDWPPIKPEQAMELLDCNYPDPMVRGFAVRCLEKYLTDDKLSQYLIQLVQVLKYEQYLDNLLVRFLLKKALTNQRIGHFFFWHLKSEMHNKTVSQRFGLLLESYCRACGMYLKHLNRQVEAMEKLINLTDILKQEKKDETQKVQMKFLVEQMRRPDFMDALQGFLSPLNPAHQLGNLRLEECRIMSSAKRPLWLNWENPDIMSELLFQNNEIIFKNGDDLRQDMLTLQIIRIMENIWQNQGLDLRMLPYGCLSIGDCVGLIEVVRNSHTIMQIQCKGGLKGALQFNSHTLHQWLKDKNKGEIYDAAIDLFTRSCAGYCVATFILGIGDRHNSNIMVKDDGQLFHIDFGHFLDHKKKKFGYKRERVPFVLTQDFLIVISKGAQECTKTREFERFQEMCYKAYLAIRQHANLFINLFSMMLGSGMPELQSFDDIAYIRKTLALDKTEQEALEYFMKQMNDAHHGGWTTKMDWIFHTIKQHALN
Sequence of PIK3CD (Human) (O00329 whole entry, looked up): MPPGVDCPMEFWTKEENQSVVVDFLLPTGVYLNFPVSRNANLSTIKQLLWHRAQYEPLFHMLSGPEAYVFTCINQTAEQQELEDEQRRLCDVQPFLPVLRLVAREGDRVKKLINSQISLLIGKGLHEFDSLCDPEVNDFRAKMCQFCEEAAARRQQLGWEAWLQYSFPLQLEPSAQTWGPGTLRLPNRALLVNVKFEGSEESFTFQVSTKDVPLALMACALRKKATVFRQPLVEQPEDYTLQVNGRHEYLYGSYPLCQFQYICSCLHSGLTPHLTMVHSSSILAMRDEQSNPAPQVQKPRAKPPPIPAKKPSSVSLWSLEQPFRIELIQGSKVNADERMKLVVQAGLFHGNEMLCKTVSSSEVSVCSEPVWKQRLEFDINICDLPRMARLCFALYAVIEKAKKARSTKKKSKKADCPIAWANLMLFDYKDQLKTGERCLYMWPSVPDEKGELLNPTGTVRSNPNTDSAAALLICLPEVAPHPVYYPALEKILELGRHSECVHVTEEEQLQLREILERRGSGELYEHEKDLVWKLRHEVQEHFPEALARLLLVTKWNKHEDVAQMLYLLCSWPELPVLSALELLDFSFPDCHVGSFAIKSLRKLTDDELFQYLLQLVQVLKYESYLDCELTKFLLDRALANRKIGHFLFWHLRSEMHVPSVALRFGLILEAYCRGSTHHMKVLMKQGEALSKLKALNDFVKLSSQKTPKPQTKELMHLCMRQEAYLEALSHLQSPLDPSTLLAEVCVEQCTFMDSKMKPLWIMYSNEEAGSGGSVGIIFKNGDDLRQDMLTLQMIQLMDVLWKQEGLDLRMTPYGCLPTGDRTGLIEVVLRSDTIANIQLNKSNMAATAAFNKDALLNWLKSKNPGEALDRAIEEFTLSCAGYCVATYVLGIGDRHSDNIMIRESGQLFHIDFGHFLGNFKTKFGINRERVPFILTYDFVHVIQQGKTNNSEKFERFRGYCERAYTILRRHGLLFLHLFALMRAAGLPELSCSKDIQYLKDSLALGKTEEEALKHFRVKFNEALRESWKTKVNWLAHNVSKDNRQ
Sequence of PIK3CG (human) (P48736 whole entry, looked up): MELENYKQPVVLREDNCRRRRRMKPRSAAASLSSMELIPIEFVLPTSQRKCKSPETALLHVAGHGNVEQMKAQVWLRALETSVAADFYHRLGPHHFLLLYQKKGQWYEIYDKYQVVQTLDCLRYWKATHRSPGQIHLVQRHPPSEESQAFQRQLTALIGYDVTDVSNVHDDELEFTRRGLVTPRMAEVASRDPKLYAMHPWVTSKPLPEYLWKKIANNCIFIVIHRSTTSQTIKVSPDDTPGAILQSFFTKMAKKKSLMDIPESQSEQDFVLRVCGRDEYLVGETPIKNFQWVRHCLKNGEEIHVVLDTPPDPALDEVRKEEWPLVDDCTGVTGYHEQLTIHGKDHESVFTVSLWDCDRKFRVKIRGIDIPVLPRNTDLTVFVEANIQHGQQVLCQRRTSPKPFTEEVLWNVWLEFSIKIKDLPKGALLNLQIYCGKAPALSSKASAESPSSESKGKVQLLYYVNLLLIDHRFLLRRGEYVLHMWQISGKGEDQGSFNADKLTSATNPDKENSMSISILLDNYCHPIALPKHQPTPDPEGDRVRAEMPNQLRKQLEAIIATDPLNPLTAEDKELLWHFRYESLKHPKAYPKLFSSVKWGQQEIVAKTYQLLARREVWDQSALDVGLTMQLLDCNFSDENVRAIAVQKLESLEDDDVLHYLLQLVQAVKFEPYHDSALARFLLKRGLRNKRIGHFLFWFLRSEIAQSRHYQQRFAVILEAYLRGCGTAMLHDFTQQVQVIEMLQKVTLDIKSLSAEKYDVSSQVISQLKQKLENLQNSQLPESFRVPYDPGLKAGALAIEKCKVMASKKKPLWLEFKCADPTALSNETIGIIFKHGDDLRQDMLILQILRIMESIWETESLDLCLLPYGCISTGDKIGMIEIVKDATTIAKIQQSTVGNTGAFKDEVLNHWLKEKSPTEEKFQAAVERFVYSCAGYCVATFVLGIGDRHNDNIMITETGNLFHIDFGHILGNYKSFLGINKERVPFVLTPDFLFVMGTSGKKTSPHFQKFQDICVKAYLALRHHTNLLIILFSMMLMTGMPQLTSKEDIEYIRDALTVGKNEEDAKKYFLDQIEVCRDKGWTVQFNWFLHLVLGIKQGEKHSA

| IC50 (PIK3CD (Human)) [nM] | IC50 (PIK3CA (human)) [nM] | IC50 (PIK3CG (human)) [nM] | IC50 (PIK3CB (Human)) [nM] | SMILES |
| --- | --- | --- | --- | --- |
| < 100 | ≥ 10000 | – | – | CC(NC(=O)c1c(N)nn2cccnc12)c1cc2cccc(Cl)c2nc1-c1ccccc1 (configuration not stated) |
| < 100 | – | – | – | C[C@H](NC(=O)c1cnc2cccnn12)c1cc2cccc(Cl)c2c(=O)n1-c1ccc(F)cc1 |
| 100 to 1000 | ≥ 10000 | 100 to 1000 | – | C[C@H](NC(=O)c1c(N)nn2cccnc12)c1cc2ccccc2c(=O)n1-c1ccccc1 |
| 100 to 1000 | ≥ 10000 | – | – | C[C@H](NC(=O)c1cnn2cccnc12)c1cc2cccc(Cl)c2c(=O)n1-c1ccccc1 |
| < 100 | ≥ 10000 | 100 to 1000 | – | CC(C)Oc1cc(-c2cccc3cc([C@H](C)NC(=O)c4c(N)nn5cccnc45)n(-c4ccccc4)c(=O)c23)ccn1 |
| < 100 | – | – | – | C[C@H](NC(=O)c1c(N)nn2cccnc12)c1cc2cccc(Cl)c2c(=O)n1C1CCCCC1 |
| 100 to 1000 | – | 100 to 1000 | – | C[C@H](NC(=O)c1c(N)nn2cccnc12)c1cc2cccc(-c3cccs3)c2c(=O)n1-c1ccccc1 |
| < 100 | – | 100 to 1000 | 100 to 1000 | CC(C)n1c([C@H](C)NC(=O)c2c(N)nn3cccnc23)cc2cccc(Cl)c2c1=O |
| < 100 | – | 100 to 1000 | 100 to 1000 | CNS(=O)(=O)c1cccc(-c2cnc(N)c(C(=O)N[C@@H](C)c3cc4cccc(Cl)c4c(=O)n3-c3ccccc3)n2)c1 |
| 100 to 1000 | – | 100 to 1000 | – | C[C@H](NC(=O)c1cnn2cccnc12)c1cc2cccc(C#CCNC(=O)[C@@H]3CCC(=O)N3)c2c(=O)n1-c1ccccc1 |
| 100 to 1000 | – | 100 to 1000 | ≥ 10000 | C[C@H](NC(=O)c1c(N)nn2cccnc12)c1cc2cccc(-c3ccccc3)c2c(=O)n1-c1ccccc1 |
| 100 to 1000 | ≥ 10000 | – | – | Cc1ccn2ncc(C(=O)N[C@@H](C)c3cc4cccc(Cl)c4c(=O)n3-c3ccccc3)c2n1 |
| 100 to 1000 | ≥ 10000 | – | – | Cc1cnc(N)c(C(=O)N[C@@H](C)c2cc3cccc(Cl)c3c(=O)n2-c2ccccc2)n1 |
| < 100 | – | < 100 | – | CC(=O)NCC#Cc1cccc2cc([C@H](C)NC(=O)c3c(N)nn4cccnc34)n(-c3ccccc3)c(=O)c12 |
| 100 to 1000 | – | 100 to 1000 | ≥ 10000 | C[C@H](NC(=O)c1c(N)nn2cccnc12)c1cc2cccc(-c3ccn[nH]3)c2c(=O)n1-c1ccccc1 |
| 100 to 1000 | ≥ 10000 | – | – | CC(C)c1ccn2nc(N)c(C(=O)N[C@@H](C)c3cc4cccc(Cl)c4c(=O)n3-c3ccccc3)c2n1 |
| < 100 | – | < 100 | – | C[C@H](NC(=O)c1c(N)nn2cccnc12)c1cc2cccc(C#CCNC(=O)[C@H]3CCC(=O)O3)c2c(=O)n1-c1ccccc1 |
| < 100 | – | 100 to 1000 | – | C[C@H](NC(=O)c1nc(-c2cn[nH]c2)cnc1N)c1cc2cccc(Cl)c2c(=O)n1-c1ccccc1 |
| < 100 | – | < 100 | 100 to 1000 | C[C@H](NC(=O)c1nc(-c2cccc(NS(C)(=O)=O)c2)cnc1N)c1cc2cccc(Cl)c2c(=O)n1-c1ccccc1 |
| – | – | 100 to 1000 | – | C[C@H](NC(=O)c1c(N)nn2cccnc12)c1c(Br)c2cccc(F)c2c(=O)n1-c1ccccc1 |
| < 100 | – | – | – | C[C@H](NC(=O)c1cncc2cccnc12)c1cc2cccc(Cl)c2c(=O)n1-c1ccc(F)cc1 |

| IC50 (PIK3CD (Human)) [nM] | IC50 (PIK3CA (human)) [nM] | IC50 (PIK3CG (human)) [nM] | IC50 (PIK3CB (Human)) [nM] | SMILES |
| --- | --- | --- | --- | --- |
| 100 to 1000 | – | 100 to 1000 | – | C[C@H](NC(=O)c1c(N)nn2cccnc12)c1cc2cccc(C#CCCN)c2c(=O)n1-c1ccccc1 |
| 100 to 1000 | ≥ 10000 | – | – | C[C@H](NC(=O)c1nc(-c2cccc(S(=O)(=O)N(C)C)c2)cnc1N)c1cc2cccc(Cl)c2c(=O)n1-c1ccccc1 |
| < 100 | – | – | – | C[C@H](NC(=O)c1cncc2cccnc12)c1cc2cccc(C(F)(F)F)c2c(=O)n1-c1ccccc1 |
| 100 to 1000 | – | 100 to 1000 | – | COc1ccc(-c2cnc(N)c(C(=O)N[C@@H](C)c3cc4cccc(Cl)c4c(=O)n3-c3ccccc3)n2)cc1OC |
| < 100 | ≥ 10000 | 100 to 1000 | – | C[C@H](NC(=O)c1c(N)nn2cccnc12)c1cc2cccc(C(F)(F)F)c2c(=O)n1-c1ccccc1 |
| < 100 | – | 100 to 1000 | 100 to 1000 | Cc1cc(C)n2nc(N)c(C(=O)N[C@@H](C)c3cc4cccc(Cl)c4c(=O)n3-c3ccccc3)c2n1 |
| < 100 | – | 100 to 1000 | – | Cc1cccc2cc([C@H](C)NC(=O)c3c(N)nn4cccnc34)n(-c3ccccc3)c(=O)c12 |
| < 100 | – | 100 to 1000 | – | C=CC(=O)NCCC#Cc1cccc2cc([C@H](C)NC(=O)c3c(N)nn4cccnc34)n(-c3ccccc3)c(=O)c12 |
| < 100 | – | 100 to 1000 | ≥ 10000 | CC(=O)Nc1cccc(-c2cccc3cc([C@H](C)NC(=O)c4c(N)nn5cccnc45)n(-c4ccccc4)c(=O)c23)c1 |
| 100 to 1000 | – | 100 to 1000 | 100 to 1000 | C[C@H](NC(=O)c1nc(-c2cccc(S(N)(=O)=O)c2)cnc1N)c1cc2cccc(Cl)c2c(=O)n1-c1ccccc1 |
| 100 to 1000 | – | 100 to 1000 | – | C[C@H](NC(=O)c1cnn2cccnc12)c1cc2cccc(Cl)c2c(=O)n1-c1ccc(F)cc1 |
| < 100 | – | < 100 | 100 to 1000 | C[C@H](NC(=O)c1c(N)nn2cccnc12)c1cc2cccc(Cl)c2c(=O)n1-c1ccc(F)cc1 |
| 100 to 1000 | – | 100 to 1000 | ≥ 10000 | COc1cc(-c2cccc3cc([C@H](C)NC(=O)c4c(N)nn5cccnc45)n(-c4cccc(F)c4)c(=O)c23)ccn1 |
| < 100 | – | 100 to 1000 | ≥ 10000 | C[C@H](NC(=O)c1c(N)nn2cccnc12)c1cc2cccc(-c3cncs3)c2c(=O)n1-c1ccccc1 |
| – | ≥ 10000 | – | – | C[C@H](NC(=O)c1c(N)oc2cccnc12)c1cc2cccc(Cl)c2c(=O)n1-c1ccccc1 |
| < 100 | – | 100 to 1000 | – | COc1ncc(-c2cccc3cc([C@H](C)NC(=O)c4c(N)nn5cccnc45)n(-c4ccccc4)c(=O)c23)cn1 |
| < 100 | – | – | ≥ 10000 | COc1cc(-c2cccc3cc([C@H](C)NC(=O)c4c(N)nn5cccnc45)n(C)c(=O)c23)ccn1 |
| < 100 | – | 100 to 1000 | ≥ 10000 | COc1cc(-c2cccc3cc([C@H](C)NC(=O)c4c(N)nn5ccc(C)nc45)n(-c4ccccc4)c(=O)c23)ccn1 |
| < 100 | ≥ 10000 | – | – | C[C@H](NC(=O)c1nc(-c2cccc(S(=O)(=O)NC3CC3)c2)cnc1N)c1cc2cccc(Cl)c2c(=O)n1-c1ccccc1 |
| 100 to 1000 | – | 100 to 1000 | – | C[C@H](NC(=O)c1nc(-c2cccc(S(C)(=O)=O)c2)cnc1N)c1cc2cccc(Cl)c2c(=O)n1-c1ccccc1 |
| 100 to 1000 | – | 100 to 1000 | – | C[C@H](NC(=O)c1c(N)nn2cccnc12)c1cc2cccc(C#CCN)c2c(=O)n1-c1ccccc1 |

| IC50 (PIK3CD (Human)) [nM] | IC50 (PIK3CA (human)) [nM] | IC50 (PIK3CG (human)) [nM] | IC50 (PIK3CB (Human)) [nM] | SMILES |
| --- | --- | --- | --- | --- |
| < 100 | – | 100 to 1000 | 100 to 1000 | CC(C)NS(=O)(=O)c1cccc(-c2cnc(N)c(C(=O)N[C@@H](C)c3cc4cccc(Cl)c4c(=O)n3-c3ccccc3)n2)c1 |
| < 100 | – | 100 to 1000 | – | C[C@H](NC(=O)c1nc(-c2cccc(S(=O)(=O)NC(C)(C)C)c2)cnc1N)c1cc2cccc(Cl)c2c(=O)n1-c1ccccc1 |
| – | ≥ 10000 | – | – | C[C@H](NC(=O)c1nc(-c2cccc(S(=O)(=O)N3CCCC3)c2)cnc1N)c1cc2cccc(Cl)c2c(=O)n1-c1ccccc1 |
| < 100 | – | < 100 | 100 to 1000 | C[C@H](NC(=O)c1nc(-c2cccc(NS(=O)(=O)C3CC3)c2)cnc1N)c1cc2cccc(Cl)c2c(=O)n1-c1ccccc1 |
| 100 to 1000 | ≥ 10000 | – | – | C[C@H](NC(=O)c1c(N)nn2cccnc12)c1cc2ccsc2c(=O)n1-c1ccccc1 |
| 100 to 1000 | – | < 100 | – | C[C@H](NC(=O)c1c(N)nn2cccnc12)c1cc2cccc(Cl)c2c(=O)n1-c1ccc(F)c(F)c1 |
| < 100 | – | < 100 | 100 to 1000 | C[C@H](NC(=O)c1nc(-c2cccc(NS(C)(=O)=O)c2)cnc1N)c1cc2cccc(Cl)c2c(=O)n1C1CC1 |
| – | – | 100 to 1000 | ≥ 10000 | CC(C)Oc1ccc(-c2cnc(N)c(C(=O)N[C@@H](C)c3cc4cccc(Cl)c4c(=O)n3-c3ccccc3)n2)cc1F |
| < 100 | – | 100 to 1000 | ≥ 10000 | C[C@H](NC(=O)c1c(N)nn2cccnc12)c1cc2cccc(C#CCCNC(=O)[C@@H]3CCC(=O)O3)c2c(=O)n1-c1ccccc1 |
| < 100 | – | < 100 | – | CC#Cc1cccc2cc([C@H](C)NC(=O)c3c(N)nn4cccnc34)n(-c3ccccc3)c(=O)c12 |
| < 100 | ≥ 10000 | – | – | CC(C)Oc1cc(-c2cccc3nc([C@H](C)NC(=O)c4c(N)nn5cccnc45)n(-c4ccccc4)c(=O)c23)ccn1 |
| 100 to 1000 | ≥ 10000 | – | – | C[C@H](NC(=O)c1c(N)nn2cccnc12)c1cc2cccc(C=O)c2c(=O)n1-c1ccccc1 |
| < 100 | – | 100 to 1000 | – | COc1cc(-c2cccc3cc([C@H](C)NC(=O)c4c(N)nn5cccnc45)n(-c4ccccc4)c(=O)c23)ccn1 |
| – | – | 100 to 1000 | ≥ 10000 | CC(=O)Nc1ncc(-c2cccc3cc([C@H](C)NC(=O)c4c(N)nn5cccnc45)n(-c4ccccc4)c(=O)c23)s1 |
| < 100 | – | 100 to 1000 | – | C[C@H](NC(=O)c1c(N)nn2cccnc12)c1cc2cccc(C#CCNC(=O)C3CCCCC3)c2c(=O)n1-c1ccccc1 |
| 100 to 1000 | – | 100 to 1000 | – | C[C@H](NC(=O)c1c(N)nn2cccnc12)c1cc2cccc(C#CCNS(C)(=O)=O)c2c(=O)n1-c1ccccc1 |
| 100 to 1000 | – | – | – | COc1cc(-c2cccc3nc([C@H](C)NC(=O)c4c(N)nn5cccnc45)n(C4CC4)c(=O)c23)ccn1 |
| < 100 | – | 100 to 1000 | ≥ 10000 | C[C@H](NC(=O)c1c(N)nn2cccnc12)c1cc2cccc(-c3ccncc3)c2c(=O)n1-c1ccccc1 |
| 100 to 1000 | ≥ 10000 | – | – | C[C@H](NC(=O)c1c(N)nn2cccnc12)c1cc2sccc2c(=O)n1-c1ccccc1 |
| < 100 | – | 100 to 1000 | ≥ 10000 | CC(=O)Nc1ccc(-c2cccc3cc([C@H](C)NC(=O)c4c(N)nn5cccnc45)n(-c4ccccc4)c(=O)c23)cc1 |
